Laboratory results taken from PubChem BioAssay AID1919015 (Molecular Pharmacology Branch, DTP, NCI, 2023).

Tested on: OVCAR-5 complex spheroids with HUVEC/MSC, viability, % test/control
Assay: Anticancer human tumor OVCAR-5 cell line growth inhibition [AhR];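 note: spheroids exposed to compounds for 7 days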;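 for viability, T/C: 100% = DMSO vehicle control wells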
Details: for IC50: curve of first compound; for viability, T/C: stronger effect = lower value
Method in brief: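 Spheroids combined tumor cells with HUVEC endothelial cells and human MSCs as stroma. AhR antagonists were paired with standard or investigational drugs, each dosed in half-log steps down from near clinical Cmax, or from 10 microM where Cmax was unknown.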

[1] = second compound 0.1 µM, first compound 0.0316 µM
[2] = second compound 0.1 µM, first compound 0.1 µM
[3] = second compound 0.1 µM, first compound 0.316 µM
[4] = second compound 0.1 µM, first compound 1 µM
[5] = second compound 0.1 µM, first compound 3.16 µM
[6] = second compound 0.1 µM, first compound 10 µM
[7] = second compound 0.316 µM, first compound 0.0316 µM
[8] = second compound 0.316 µM, first compound 0.1 µM
[9] = second compound 0.316 µM, first compound 0.316 µM
[10] = second compound 0.316 µM, first compound 1 µM
[11] = second compound 0.316 µM, first compound 3.16 µM
[12] = second compound 0.316 µM, first compound 10 µM
[13] = second compound 1 µM, first compound 0.0316 µM
[14] = second compound 1 µM, first compound 0.1 µM
[15] = second compound 1 µM, first compound 0.316 µM
[16] = second compound 1 µM, first compound 1 µM
[17] = second compound 1 µM, first compound 3.16 µM
[18] = second compound 1 µM, first compound 10 µM
[19] = second compound 3.16 µM, first compound 0.0316 µM
[20] = second compound 3.16 µM, first compound 0.1 µM
[21] = second compound 3.16 µM, first compound 0.316 µM
[22] = second compound 3.16 µM, first compound 1 µM
[23] = second compound 3.16 µM, first compound 3.16 µM
[24] = second compound 3.16 µM, first compound 10 µM
[25] = second compound 10 µM, first compound 0.0316 µM
[26] = second compound 10 µM, first compound 0.1 µM
[27] = second compound 10 µM, first compound 0.316 µM
[28] = second compound 10 µM, first compound 1 µM
[29] = second compound 10 µM, first compound 3.16 µM
[30] = second compound 10 µM, first compound 10 µM
[31] = second compound 0.1 µM, first compound 0.00316 µM
[32] = second compound 0.1 µM, first compound 0.01 µM
[33] = second compound 0.316 µM, first compound 0.00316 µM
[34] = second compound 0.316 µM, first compound 0.01 µM
[35] = second compound 1 µM, first compound 0.00316 µM
[36] = second compound 1 µM, first compound 0.01 µM
[37] = second compound 3.16 µM, first compound 0.00316 µM
[38] = second compound 3.16 µM, first compound 0.01 µM
[39] = second compound 10 µM, first compound 0.00316 µM
[40] = second compound 10 µM, first compound 0.01 µM

SMILES	IC50 (second compound 0.1 µM)	IC50 (second compound 0.316 µM)	IC50 (second compound 1 µM)	IC50 (second compound 3.16 µM)	IC50 (second compound 10 µM)	viability, T/C [1]	viability, T/C [2]	viability, T/C [3]	viability, T/C [4]	viability, T/C [7]	viability, T/C [8]	viability, T/C [9]	viability, T/C [10]	viability, T/C [13]	viability, T/C [14]	viability, T/C [15]	viability, T/C [19]	viability, T/C [20]	viability, T/C [25]	viability, T/C [26]	further results
CC(C)c1c(-c2ccccc2)nc2c(C#N)c[nH]n2c1=O + CC(CO)NC(=O)c1cc(-c2ccc(Cl)cc2)nn(-c2cnn(C)c2)c1=O	> 10000 nM	> 10000 nM	> 10000 nM	> 10000 nM	> 10000 nM	117%	111%	112%	115%	107%	117%	114%	115%	114%	121%	119%	99%	108%	101%	105%	viability, T/C [5]: 114%; viability, T/C [6]: 116%; viability, T/C [11]: 116%; viability, T/C [12]: 119%; viability, T/C [16]: 116%; viability, T/C [17]: 117%; viability, T/C [18]: 121%; viability, T/C [21]: 107%; viability, T/C [22]: 105%; viability, T/C [23]: 111%; viability, T/C [24]: 111%; viability, T/C [27]: 100%; viability, T/C [28]: 101%; viability, T/C [29]: 103%; viability, T/C [30]: 104%
CC[C@@]1(O)C(=O)OCc2c1cc1n(c2=O)Cc2cc3c(CN(C)C)c(O)ccc3nc2-1 + Cc1ccccc1N=Nc1ccc(NC(=O)c2ccnn2C)c(C)c1	22.9 nM	24.3 nM	25.3 nM	27.5 nM	28.2 nM	34.7%	42.4%	–	–	36.5%	42.7%	–	–	38.7%	42.4%	–	41%	47.4%	40.9%	50.4%	viability, T/C (second compound 0.1 µM, first compound 0.000316 µM): 103%; viability, T/C (second compound 0.1 µM, first compound 0.001 µM): 102%; viability, T/C [31]: 94%; viability, T/C [32]: 79.2%; viability, T/C (second compound 0.316 µM, first compound 0.000316 µM): 105%; viability, T/C (second compound 0.316 µM, first compound 0.001 µM): 103%; viability, T/C [33]: 96%; viability, T/C [34]: 84.6%; viability, T/C (second compound 1 µM, first compound 0.000316 µM): 112%; viability, T/C (second compound 1 µM, first compound 0.001 µM): 108%; viability, T/C [35]: 104%; viability, T/C [36]: 89.3%; viability, T/C (second compound 3.16 µM, first compound 0.000316 µM): 113%; viability, T/C (second compound 3.16 µM, first compound 0.001 µM): 110%; viability, T/C [37]: 108%; viability, T/C [38]: 92%; viability, T/C (second compound 10 µM, first compound 0.000316 µM): 100%; viability, T/C (second compound 10 µM, first compound 0.001 µM): 104%; viability, T/C [39]: 101%; viability, T/C [40]: 89%
COc1cc(C2c3cc4c(cc3C(OC3OC5COC(C)OC5C(O)C3O)C3COC(=O)C23)OCO4)cc(OC)c1O (stereo not given) + Cc1ccccc1N=Nc1ccc(NC(=O)c2ccnn2C)c(C)c1	2090 nM	2250 nM	2500 nM	2750 nM	2910 nM	105%	104%	98.8%	68.3%	114%	114%	103%	68.8%	115%	116%	105%	112%	121%	105%	107%	viability, T/C [5]: 40.4%; viability, T/C [6]: 32.1%; viability, T/C [11]: 43.4%; viability, T/C [12]: 32.9%; viability, T/C [16]: 73.5%; viability, T/C [17]: 44.1%; viability, T/C [18]: 36.1%; viability, T/C [21]: 110%; viability, T/C [22]: 77.1%; viability, T/C [23]: 47.9%; viability, T/C [24]: 38.2%; viability, T/C [27]: 98%; viability, T/C [28]: 68.8%; viability, T/C [29]: 51.8%; viability, T/C [30]: 38.9%
COc1cccc2c1C(=O)c1c(O)c3c(c(O)c1C2=O)CC(O)(C(=O)CO)CC3OC1CC(N)C(O)C(C)O1 (stereo not given) + Cc1ccccc1N=Nc1ccc(NC(=O)c2ccnn2C)c(C)c1	139 nM	164 nM	231 nM	269 nM	391 nM	60.9%	48.8%	42.5%	23.8%	61.6%	51.7%	43.6%	23.7%	63.4%	53.2%	48%	65.3%	59.4%	63.4%	62.2%	viability, T/C [5]: 1.63%; viability, T/C [6]: 0.98%; viability, T/C [11]: 1.72%; viability, T/C [12]: 1.7%; viability, T/C [16]: 22.3%; viability, T/C [17]: 1.44%; viability, T/C [18]: 1%; viability, T/C [21]: 48%; viability, T/C [22]: 23%; viability, T/C [23]: 1.21%; viability, T/C [24]: 1.15%; viability, T/C [27]: 55%; viability, T/C [28]: 25.1%; viability, T/C [29]: 1.08%; viability, T/C [30]: 1.24%
Nc1ccn(C2OC(CO)C(O)C2(F)F)c(=O)n1 (stereo not given) + Cc1ccccc1N=Nc1ccc(NC(=O)c2ccnn2C)c(C)c1	< 31.6 nM	< 31.6 nM	< 31.6 nM	< 31.6 nM	< 31.6 nM	27.7%	25.4%	26.3%	27.4%	27.5%	25.3%	26.4%	26.9%	29.7%	27.1%	26.7%	28.9%	27.2%	31.6%	29.2%	viability, T/C [5]: 28.5%; viability, T/C [6]: 28.1%; viability, T/C [11]: 29%; viability, T/C [12]: 29.1%; viability, T/C [16]: 27.1%; viability, T/C [17]: 28%; viability, T/C [18]: 27.9%; viability, T/C [21]: 27.1%; viability, T/C [22]: 28.2%; viability, T/C [23]: 29.3%; viability, T/C [24]: 29.2%; viability, T/C [27]: 31.9%; viability, T/C [28]: 31.1%; viability, T/C [29]: 32.2%; viability, T/C [30]: 31%
Nc1ncn(C2CC(O)C(CO)O2)c(=O)n1 (stereo not given) + Cc1ccccc1N=Nc1ccc(NC(=O)c2ccnn2C)c(C)c1	> 1000 nM	> 1000 nM	> 1000 nM	> 1000 nM	> 1000 nM	88.3%	76.4%	65%	64.5%	94.3%	79.6%	69.3%	59.2%	98.2%	81.4%	68.9%	100%	85.9%	100%	82.5%	viability, T/C [31]: 99%; viability, T/C [32]: 98.3%; viability, T/C [33]: 104%; viability, T/C [34]: 104%; viability, T/C [35]: 108%; viability, T/C [36]: 105%; viability, T/C [16]: 62%; viability, T/C [37]: 105%; viability, T/C [38]: 109%; viability, T/C [21]: 72%; viability, T/C [22]: 62.2%; viability, T/C [39]: 104%; viability, T/C [40]: 109%; viability, T/C [27]: 68.1%; viability, T/C [28]: 61.4%
